Source: patent EP1207391A1, “METHOD FOR SCREENING TARGETING DDS PREPARATION” (Ajinomoto Co., Inc., priority 1999, dated 2001)
pKd, pKi: −log10 of the molar value. “And” between values parts separate entries of the source, which are not always exact repeats. Equal values may be shown once. Read-outs that look alike come from different tables or passages of the source.

Columns and labels:
[1] = target: T1, asialoglycoprotein receptor (Mus musculus, UniProt P24721+P34927); test: Screening of ligand (1): bound 125I-ASOR after incubation of hepatocytes with unlabeled ligand (Example 17); type: cell-based; settings: bound counts of 125I-ASOR after 10 minutes at 37°C with ligand at 100 - 2000 times of Kd; mean of 3
T1 construct: Mouse primary cultured hepatocytes, which were cultured for overnight on the 12 well plate, isolated by collagenase perfusion; endogenous in cells; host or cells: mouse (C57BL/6) primary hepatocytes cultured overnight on 12-well plates
T1 sequence (P34927 1-284): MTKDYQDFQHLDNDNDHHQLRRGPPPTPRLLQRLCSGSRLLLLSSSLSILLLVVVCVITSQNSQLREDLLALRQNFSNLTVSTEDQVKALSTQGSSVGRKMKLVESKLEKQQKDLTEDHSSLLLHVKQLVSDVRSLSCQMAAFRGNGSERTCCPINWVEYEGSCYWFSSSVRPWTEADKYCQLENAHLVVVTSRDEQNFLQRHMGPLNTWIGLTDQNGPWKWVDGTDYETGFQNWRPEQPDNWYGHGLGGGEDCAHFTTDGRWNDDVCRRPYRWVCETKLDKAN
T1 sequence (P24721 1-301): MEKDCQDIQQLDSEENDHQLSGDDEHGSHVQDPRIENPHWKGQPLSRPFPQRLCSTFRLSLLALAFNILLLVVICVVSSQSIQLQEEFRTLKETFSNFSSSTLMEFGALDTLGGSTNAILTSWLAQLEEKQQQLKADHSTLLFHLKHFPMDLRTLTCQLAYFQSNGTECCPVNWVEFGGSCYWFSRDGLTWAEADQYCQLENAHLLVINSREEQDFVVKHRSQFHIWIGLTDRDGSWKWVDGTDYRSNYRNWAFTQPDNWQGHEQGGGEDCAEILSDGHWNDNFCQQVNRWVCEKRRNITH
Protocol: A method for screening ligand having high ability to avoid the internalization without radio labeling each ligand and without calculation of kint and koff, was performed as follows.
Concretely, mouse primary cultured hepatocytes, which were isolated by a method of Berry et al. collagenase perfusion method shown in example and cultured overnight on 12 well plate, was washed twice with D-MEM (pH 7.4) (each 2 ml) containing D-PBS, 0.1% BSA and 20 mM Hepes. The same D-MEM medium (1 ml) was added thereto and preincubated at 37°C for 60 minutes. Cooled D-PBS (pH 5.0) containing 10 mM EDTA was added to the cells, allowed to stand under ice cooling for 4 minutes and washed twice with cooled D-PBS (2 ml). […] After 10 minutes, the plate was placed on the ice bath, added the cooled D-PBS (pH 5.0) containing 10 mM EDTA, allowed to stand under ice cooling for 4 minutes, and washed 4 times with cooled D-PBS (1 ml). D-MEM solution (0.4 ml) of 0.6 nM ^125I-ASOR was added to the cells in each well on the ice bath, and allowed to stand at 4°C for 60 minutes. On the ice bath, they were washed 4 times with cooled D-PBS (1 ml), allowed to stand at -80°C for more than 30 minutes, added 0.1 N sodium hydroxide (0.5 ml), and incubated at 37°C formore than 1 hour. Amount of receptor remained on the surface (ligand bound or free) other than the internalization by endocytosis was calculated by measuring the cell lysis with ã-counter (mean of 3 repeats).

[2] = target: T1, asialoglycoprotein receptor; test: Screening of ligand (2): kint and koff without labeling the ligand (Example 18); type: cell-based; settings: for kint: 37°C for 10 minutes, 125I-ASOR read-out
Protocol: A method for screening ligand having high ability to avoid the internalization without radio labeling each ligand to obtain kint and koff and to calculate simply the ability to avoid the internalization (= kint / koff) was performed as follows. […] Concretely, mouse primary cultured hepatocytes, which were isolated by the method of Berry et al. collagenase perfusion method shown in example and cultured overnight on 12 well plate, was washed twice with D-MEM (pH 7.4) (each 2 ml) containing D-PBS, 0.1% BSA and 20 mM Hepes. The same D-MEM medium (1 ml) was added thereto and preincubated at 37°C for 60 minutes. Cooled D-PBS (pH 5.0) containing 10 mM EDTA was added to the cells, allowed to stand under ice cooling for 4 minutes and washed twice with cooled D-PBS (2 ml). Using the thus prepared plate, experiments for calculating kint and koff were performed. […] Separately, the system without addition of the ligand was incubated for 0 minute and for 10 minutes at 37°C. After the necessary time has passed, immediately the plate was placed on the ice bath, added the cooled D-PBS (pH 5.0) containing 10 mM EDTA, allowed to stand under ice cooling for 4 minutes, and washed 4 times with cooled D-PBS (1 ml). D-MEM solution (0.4 ml) of 0.6 nM ^125I-ASOR was added to the cells in each well on the ice bath, and allowed to stand at 4°C for 60 minutes. […] Amount of receptor remained on the surface (ligand bound or free) other than the integration by endocytosis was calculated by measuring the cell lysis with ã-counter (mean of 3 repeats). The obtained amount of ratio activity was all divided by the concentration of the added solution (cpm/μl) to convert the distribution volume (μl/well). […] Separately, with regard to the system without ligand, only the said D-MEM medium is added 0.4 ml and incubated. […] The cell lytic solution was measured using γ-counter to calculate amount of the dissociated cold ligand once bound with the receptor. The amount of obtained radio activity is all divided by the concentration of the added solution (cpm/μl) and converted to the distribution volume (μl/well). With regards to the ligand non-added system and the ligand added system, the binding rate for 15 minutes is calculated by subtracting the distribution volume in the incubation for 5 minutes from the distribution volume in the incubation for 20 minutes. The binding rate without addition of the ligand is set as 100 and the binding rate of each ligand is converted into the percentage to the control (% of control).

[3] = target: T1, asialoglycoprotein receptor; test: Binding inhibition experiment 2 of 125I-ASOR on mouse primary cultured hepatocytes (Example 9); settings: read-out: Ki value, 0.6 nM 125I-ASOR, 4°C for 60 minutes
Protocol: In the binding inhibition experiment according to the method of Biessen, et al. performed in example 8, a concentration of added ^125I-ASOR was 22 nM. Kd value of ASOR is approximately several nM and the concentration of added ASOR is higher that the actual Kd value, consequently, in the experiment in example 8, the binding inhibition by each ligand is difficult to generate and the Kd value is estimated too high. In order to evaluate newly synthesized ligand[(Gal)3(6) and (Gal)2(9)], calculation of more exact Ki value is necessary.
Mouse primary cultured hepatocytes, which were cultured for overnight on the 12 well plate, isolated by collagenase perfusion described in examples of Berry, et al., were washed twice with D-MEM (pH 7.4) (each 2 ml) containing D-PBS, 0.1% BSA and 20 mM Hepes, added said D-MEM medium (1 ml), and preincubated at 37°C for 60 minutes. The cooled D-PBS (pH 5.0) containing 10 mM EDTA was added to the cells, allowed to stand under ice-cooling for 4 minutes, and washed twice with cooled D-PBS (2 ml). […] The cells were washed, on the ice bath, 4 times with cooled D-PBS (1 ml), allowed to leave at -80°C for more than 30 minutes, added 0.1 N aqueous sodium hydroxide (0.5 ml), incubated at 37°C for more than 1 hour, and measured the cell lytic solution by using γ-counter to calculate amount of bound ^125I-ASOR on the surface of cells. […]

[4] = target: T2, asialoglycoprotein receptor (ASGP-R) (Mus musculus, UniProt P24721+P34927); test: Binding inhibition experiment of 125I-ASOR to mouse liver cells (Example 8, method of Biessen et al.); settings: for pKi: 4°C
T2 construct: The liver parenchymal cells (in 4 ml Falcon tube, 0.6 - 1.0 × 10^6/0.5 ml in ice bath); endogenous in cells; host or cells: freshly isolated mouse liver parenchymal cells (C57BL/6) in suspension
T2 sequence (P34927 1-284): T1 sequence (P34927 1-284)
T2 sequence (P24721 1-301): T1 sequence (P24721 1-301)
Protocol: Among these ligands, we have first examined two types of ligands for asialoglycoprotein receptor on hepatocytes, i.e. the three-branched galactose ligand [(Gal)3] of the following formula: [drawing 5] and the three-branched N-acetylgalactosamine ligand [(GalNAc)3] of the following formula: [drawing 6] and their binding forms to IL-2. At first, the Kd value, which is an index of the binding affinity to ASGP-R, was calculated. Table 1,
Binding inhibition experiments of ASOR to mouse liver cells using each ligand were performed according to a method of Biessen, et al. [Biessen, E.A.L. et al., J. Biol. Chem., 271(45): 28024-28030 (1996)].
The liver parenchymal cells (in 4 ml Falcon tube, 0.6 - 1.0 × 10^6/0.5 ml in ice bath) was added to D-PBS containing 2% BSA. Inhibitor 0.25 ml prepared for various concentration with D-PBS containing 2% BSA was added thereto. ^125I-ASOR 0.25 ml (22 nM) in D-PBS containing 2% BSA was added therein and stirred gently at 4°C for 2 hours.
The mixture was centrifuged at 50G for 1 minute, discarded the supernatant solution, added D-PBS containing 2% BSA and stirred, then again centrifuged at 50G for 1 minute, and discarded the supernatant medium. This procedure was repeated again and the medium was measured by γ-counter.
Thereafter, 0.1 N NaOH containing 10% SDS 1 ml was added thereto, and the protein concentration was measured by Lowry method using the protein assay kit (Biorad Inc.).
As a result, depending on the increase in the added concentration of (GalNAc)3 and (Gal)3, […] was dissociated with almost monophasic manner. Data of dissociation obtained by three repeated experiments were analyzed using non-linear single site model to calculate the binding inhibition constant (Ki).
Large differences were observed between two types of the ligand.

Structure (SMILES) | Bound [1] [cpm] | koff ([2]; unlabeled ligand, 4°C, 125I-ASOR binding rate for 15 minutes, read-out: koff (converted)) [s⁻¹] | kint ([2]; unlabeled ligand) [min⁻¹] | pKi [3] | koff [2] [s⁻¹] | affinity relative to (GalNAc)3 ([4]; ratio of affinities from Kd values) | pKi ([4]; read-out: Binding inhibitory constant (Ki) Ave., average of three repeated experiments, 125I-ASOR 22 nM) | pKi ([4]; read-out: Binding inhibitory constant (Ki), individual experiments 1-3, binding of 125I-ASOR (22 nM) to mouse hepatocytes) | pKd ([4]; read-out: Kd value, calculated from the Ki of Table 1)
NCCCCCC(=O)N[C@@H](CCC(=O)NCCOCCOCCO[C@@H]1O[C@H](CO)[C@H](O)[C@H](O)[C@H]1O)C(=O)NCCOCCOCCO[C@@H]1O[C@H](CO)[C@H](O)[C@H](O)[C@H]1O (atropisomer, axis not shown) [(Gal)2(9)] | 1670 | 0.000395 | 0.0605 | – | – | – | – | – | –
NCCCCCC(=O)NC(CCC(=O)NCCOCCO[C@@H]1O[C@H](CO)[C@H](O)[C@H](O)[C@H]1O)C(=O)NC(CCC(=O)NCCOCCO[C@@H]1O[C@H](CO)[C@H](O)[C@H](O)[C@H]1O)C(=O)NCCOCCO[C@@H]1O[C@H](CO)[C@H](O)[C@H](O)[C@H]1O (stereo partly drawn) [(Gal)3(6)] | 2015 | – | 0.0417 | 6.43 | 0.00113 | – | – | – | –
NCCCCCC(=O)NC(CCC(=O)NCCOCCOCCO[C@@H]1O[C@H](CO)[C@H](O)[C@H](O)[C@H]1O)C(=O)NC(CCC(=O)NCCOCCOCCO[C@@H]1O[C@H](CO)[C@H](O)[C@H](O)[C@H]1O)C(=O)NCCOCCOCCO[C@@H]1O[C@H](CO)[C@H](O)[C@H](O)[C@H]1O (stereo partly drawn) [(Gal)3, three-branched galactose ligand] | 1784 | – | 0.054 | 6.80 | 0.000943 | approximately 1/200 | 3.46 and 3.45 | 3.17 and 3.45 and 3.53 | 3.45
